{"source": "patent EP1566168A1", "about": "“Dermo-cosmetic compositions for depigmenting and use of it” (priority 2004, dated 2005)", "origin": "cited, not measured here", "key": {"[1]": {"system": "peau", "settings": "applied to the skin"}, "[2]": {"settings": "oil"}}}
{"smiles": "CCCCCCCCCCCCCCCC(=O)OCc1cc(=O)c(OC(=O)CCCCCCCCCCCCCCC)co1", "note": "[acide dipalmitoylkojique, 2-palmitoyloxy 5-palmitoyloxy γ-pyrone]", "values": [{"measurement": "propriétés irritantes", "setting": "[1]", "value": "dépourvu de propriétés irritantes"}, {"measurement": "solubilité", "setting": "[2]", "value": "soluble dans l'huile"}]}
